Data from ChEMBL document CHEMBL4414655, “Position Effect of Fatty Acid Modification on the Cytotoxicity and Antimetastasis Potential of the Cytotoxic Peptide Lycosin-I” (J Med Chem, 2019).
Active and inactive are the calls of the source. No cut-off for these calls is given here. Residues, ends and D or L forms follow the SMILES beside them. *: point of attachment. Lauroyl = CCCCCCCCCCCC(=O)*

Legend:
A549 [1] = experiment: Induction of apoptosis in human A549 cells assessed as late apoptotic cells level at 2 uM incubated for 24 hrs by Annexin-V-FITC/PI staining based analysis (reference value: 2.27%); format: functional
A549 [2] = experiment: Induction of cell membrane disruption in human A549 cells assessed as shrunken morphology with membrane lysis at 4 uM incubated for 24 hrs by scanning electron microscopy; format: cell-based
A549 [3] = experiment: Cytotoxicity in human A549 cells assessed as reduction in cell viability at 1.56 to 12.5 uM at 4 degC incubated for 24 hrs by CCK8 assay; format: functional, cell-based
[4] = Toxicity in mouse B16/F10 cells implanted BALB/C mouse assessed as effect on body weight at 8 mg/kg, ip dosed every other day for 10 days and measured every 5 days; format: organism-based; details: in vivo
PC-3 = experiment: Cytotoxicity in human PC3 cells assessed as reduction in cell viability incubated for 24 hrs by CCK8 assay; format: functional, cell-based; details: PC-3, 24 h
B16-F10 [5] = experiment: Anti-metastasis activity in mouse B16/F10 cells implanted in BALB/C mouse assessed as inhibition of lung metastatic nodules at 8 mg/kg, ip dosed every other day for 10 days and measured every 2 days by H and E staining based assay; format: functional, organism-based
[6] = Stability in mouse serum at 100 uM incubated for 24 hrs at 37 degC by MALDI-TOF MS analysis; format: ADME, cell-free
L02 = experiment: Cytotoxicity in human L02 cells assessed as reduction in cell viability incubated for 24 hrs by CCK8 assay; format: cell-based; details: L02, 24 h
A549 [7] = experiment: Cytotoxicity in human A549 cells assessed as reduction in cell viability incubated for 24 hrs by CCK8 assay; format: functional, cell-based; details: A549, 24 h
A549 [8] = experiment: Cytotoxicity in human A549 cells 3D tumor spheroids assessed as reduction in cell viability at 5 to 10 uM treated on day 0 and measured on day 5 by CCK8 assay; format: functional, cell-based
A549 [9] = experiment: Cytotoxicity in human A549 cells assessed as reduction in cell viability at 1 uM incubated for 24 hrs by CCK8 assay; format: functional, cell-based
A549 [10] = experiment: Potency index, ratio of IC50 for lycosin-I to IC50 for test compound for cytotoxicity in human A549 cells assessed as reduction in cell viability at 0.78 to 50 uM incubated for 24 hrs by CCK8 assay; format: functional
HEK-293T = experiment: Cytotoxicity in human HEK293T cells assessed as reduction in cell viability incubated for 24 hrs by CCK8 assay; format: cell-based; details: Homo sapiens, HEK-293T
A549 [11] = experiment: Induction of cell membrane disruption in human A549 cells at 4 uM incubated for 24 hrs by scanning electron microscopy; format: cell-based
Homo sapiens = organism: Homo sapiens; experiment: Induction of cell membrane disruption in human erythrocytes cells assessed as induction of hemolysis at 0.098 to 50 uM incubated for 1 hr by fluorescence based assay relative to control; format: cell membranes
A549 [12] = experiment: Anti-migration activity in human A549 cells incubated for 12 hrs by crystal violet staining based transwell migration assay; format: functional, cell-based
A549 [13] = experiment: Induction of apoptosis in human A549 cells assessed as induction of caspase-3 activation at 2 uM incubated for 24 hrs using Ac-DEVD-pNA substrate; format: functional, cell-based
A549 [14] = experiment: Induction of cell membrane disruption in human A549 cells assessed as LDH release at 3.1 uM incubated for 30 mins by fluorescence based assay relative to control
A549 [15] = experiment: Induction of cell membrane disruption in human A549 cells at 4 uM incubated for 1 hr by AO/EB staining based fluorescence microscopy
U-87 MG = experiment: Cytotoxicity in human U87 cells assessed as reduction in cell viability incubated for 24 hrs by CCK8 assay; format: functional, cell-based, U-87MG ATCC
A549 [16] = experiment: Cytotoxicity in human A549 cells assessed as reduction in cell viability by trypan blue staining method; format: functional, cell-based
A549 [17] = experiment: Cytotoxicity in human A549 cells assessed as reduction in cell viability at 0.39 to 25 uM pre-incubated in presence of 10% FBS for 48 hrs and measured after 24 hrs by CCK8 assay; format: functional, cell-based
A549 [18] = experiment: Inhibition of colony formation n human A549 cells incubated for 15 days by crystal violet staining based assay; format: functional, cell-based
A549 [19] = experiment: Induction of apoptosis in human A549 cells assessed as early apoptotic cells level at 2 uM incubated for 24 hrs by Annexin-V-FITC/PI staining based analysis (reference value: 2.27%); format: functional
A549 [20] = experiment: Inhibition of spheroids growth in human A549 cells 3D tumor spheroids assessed as induction of physical shrinking and peripheral collapse at 10 uM treated on day 0 and measured on day 5; format: functional, cell-based
SW-620 = experiment: Cytotoxicity in human SW620 cells assessed as reduction in cell viability incubated for 24 hrs by CCK8 assay; format: functional, cell-based; details: SW-620, 24 h
A549 [21] = experiment: Anti-migration activity in human A549 cells 3D tumor spheroids assessed as reduction in cell migration at 2.5 to 10 uM incubated for 48 hrs by gelatin based 3D spheroid based metastasis assay; format: functional
B16-F10 [22] = experiment: Antitumor activity in mouse B16/F10 cells implanted in BALB/C mouse assessed as inhibition of tumor growth at 10 mg/kg, ip dosed every other day for 10 days and measured every 2 days; format: functional, organism-based
MCF7 = experiment: Cytotoxicity in human MCF7 cells assessed as reduction in cell viability incubated for 24 hrs by CCK8 assay; format: functional, cell-based; details: MCF7, 24 h
[23] = Toxicity in mouse B16/F10 cells implanted BALB/C mouse assessed as effect on body weight at 10 mg/kg, ip dosed every other day for 10 days and measured every 5 days; format: organism-based; details: in vivo
A549 [24] = experiment: Cytotoxicity in human A549 cells assessed as reduction in cell viability at 1.56 to 12.5 uM at 37 degC incubated for 24 hrs by CCK8 assay; format: functional, cell-based
B16-F10 [25] = experiment: Anti-metastasis activity in mouse B16/F10 cells implanted in BALB/C mouse assessed as reduction in lung metastatic nodules at 8 mg/kg, ip dosed every other day for 10 days and measured every 2 days by H and E staining based assay; format: functional, organism-based
A549 [26] = experiment: Induction of cell membrane disruption in human A549 cells assessed as LDH release at 3.25 uM incubated for 30 mins by fluorescence based assay relative to control
A549 [27] = experiment: Anti-invasion activity in human A549 cells at 0.5 to 1 uM incubated for 12 hrs by crystal violet staining based Matrigel coated transwell invasion assay; format: functional, cell-based
A549 [28] = experiment: Inhibition of spheroids growth in human A549 cells 3D tumor spheroids at 5 uM treated on day 0 and measured on day 5 by CCK8 assay; format: functional, cell-based
HeLa = experiment: Cytotoxicity in human HeLa cells assessed as reduction in cell viability incubated for 24 hrs by CCK8 assay; format: functional, cell-based
B16-F10 [29] = experiment: Cytotoxicity in mouse B16/F10 cells assessed as reduction in cell viability incubated for 24 hrs by CCK8 assay; format: functional, cell-based; details: B16-F10, 24 h
A549 [30] = experiment: Induction of apoptosis in human A549 cells assessed as necrotic cells level at 2 uM incubated for 24 hrs by Annexin-V-FITC/PI staining based analysis (reference value: 2.27%); format: functional
A549 [31] = experiment: Inhibition of colony formation n human A549 cells up to 10 uM incubated for 15 days by crystal violet staining based assay; format: functional, cell-based
A549 [32] = experiment: Anti-migration activity in human A549 cells at 0.5 to 1 uM incubated for 12 hrs by crystal violet staining based transwell migration assay; format: functional, cell-based
A549 [33] = experiment: Induction of cell membrane disruption in human A549 cells assessed as LDH release at 25 uM incubated for 30 mins by fluorescence based assay relative to control
A549 [34] = experiment: Inhibition of spheroids growth in human A549 cells 3D tumor spheroids at 10 to 20 uM treated on day 0 and measured on day 5 by CCK8 assay; format: functional, cell-based
A549 [35] = experiment: Anti-migration activity in human A549 cells 3D tumor spheroids assessed as reduction in cell migration at 20 uM incubated for 48 hrs by gelatin based 3D spheroid based metastasis assay; format: functional

In the case of `CCCCCCCCCCCC(=O)N[C@@H](CCCCN)C(=O)NCC(=O)N[C@@H](Cc1c[nH]c2ccccc12)C(=O)N[C@@H](Cc1ccccc1)C(=O)N[C@@H](CCCCN)C(=O)N[C@@H](C)C(=O)N[C@@H](CCSC)C(=O)N[C@@H](CCCCN)C(=O)N[C@@H](CO)C(=O)N[C@H](C(=O)N[C@@H](C)C(=O)N[C@@H](CCCCN)C(=O)N[C@@H](Cc1ccccc1)C(=O)N[C@H](C(=O)N[C@@H](C)C(=O)N[C@@H](CCCCN)C(=O)N[C@@H](CCC(=O)O)C(=O)N[C@@H](CCCCN)C(=O)N[C@@H](CC(C)C)C(=O)N[C@@H](CCCCN)C(=O)N[C@@H](CCC(=O)O)C(=O)N[C@@H](Cc1cnc[nH]1)C(=O)N[C@@H](CC(C)C)C(=O)O)[C@@H](C)CC)[C@@H](C)CC` (Lauroyl-KGWFKAMKSIAKFIAKEKLKEHL-OH), the Activity (A549 [1]) is reported as 10.88%, the Activity (A549 [2]) is reported as “Active” and the Activity (A549 [3]) is reported as “inactive”. The Activity [4] was “Non-Toxic”, the IC50 (PC-3) was 2.2 µM and the inhibition (B16-F10 [5]) was “Active”. The Stability [6] was “Stable”, the IC50 (L02) was 3.9 µM and the IC50 (A549 [7]) was 2.2 to 2.6 µM. The “growth inhibition (GI)” value (A549 [8]) was “Active”, the Activity (A549 [9]) was “inactive” and the “Ratio IC50” value (A549 [10]) was 4 - 15. The IC50 (HEK-293T) was 2.2 µM, the Activity (A549 [11]) was “Active” and the Activity (Homo sapiens) was “Active”. The Activity (A549 [12]) was “Dose-dependent effect”, the Activity (A549 [13]) was “Active” and the Activity (A549 [14]) was 55%. The Activity (A549 [15]) was “Active”, the IC50 (U-87 MG) was 1.9 µM and the Activity (A549 [16]) was “Active”. The Activity (A549 [17]) was “Active”, the inhibition (A549 [18]) was “Dose-dependent effect” and the Activity (A549 [19]) was 0.91%. For the same compound, the “growth inhibition (GI)” value (A549 [20]) was “Active”, the IC50 (SW-620) was 2 µM and the Activity (A549 [21]) was “Active”. The TGI (B16-F10 [22]) was “Active”, the IC50 (MCF7) was 1.7 µM and the Activity [23] was “Non-Toxic”. The Activity (A549 [24]) was “Active”, the inhibition (B16-F10 [25]) was “Active” and the Activity (A549 [26]) was 59.4%. The Activity (A549 [27]) was “Dose-dependent effect”, the “growth inhibition (GI)” value (A549 [28]) was “Active” and the IC50 (HeLa) was 2.8 µM. It also gave an IC50 (B16-F10 [29]) of 2 µM and an Activity (A549 [30]) of 31.84%.

In the case of H-KGWFKAMKSIAKFIAKEKLKEHL-OH, the Activity (A549 [1]) is reported as 3.37%, the inhibition (A549 [31]) is reported as “inactive” and the Activity (A549 [32]) is reported as “inactive”. The IC50 (PC-3) was 11 µM, the inhibition (B16-F10 [5]) was “inactive” and the Stability [6] was “Unstable”. For the same compound, the IC50 (L02) was 42.1 µM, the Activity (A549 [33]) was 37% and the IC50 (A549 [7]) was 22.9 µM. The IC50 (HEK-293T) was 27.9 µM, the Activity (A549 [11]) was “inactive” and the “growth inhibition (GI)” value (A549 [34]) was “inactive”. For the same compound, the Activity (A549 [35]) was “Active”, the Activity (A549 [15]) was “inactive” and the IC50 (U-87 MG) was 19.9 µM. For the same compound, the Activity (A549 [17]) was “inactive”, the Activity (A549 [19]) was 0.48% and the IC50 (SW-620) was 13.7 µM. For the same compound, the TGI (B16-F10 [22]) was “inactive”, the IC50 (MCF7) was 20.1 µM and the Activity [23] was “Non-Toxic”. For the same compound, the Activity (A549 [26]) was 5.1%, the Activity (A549 [27]) was “inactive” and the IC50 (HeLa) was 26.3 µM. For the same compound, the Activity (A549 [30]) was 1.97%.
